# Test results taken from PubChem BioAssay (NCI).
#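 Each compound was tested at five concentrations against cells in 96-well plates for 48 hours. GI50 = concentration required for 50% inhibition of growth. The concentration for full growth arrest is given as TGI.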
# How the values were obtained:
# Test in all cases: inhibition of tumour cell growth, NCI panel, 48 h
# [1] = tested on: SF-539 CNS
# [2] = tested on: OVCAR-5 ovarian
# [3] = tested on: 786-0 renal
# [4] = tested on: RPMI-8226 leukemia
# [5] = tested on: NCI-H23 lung
# [6] = tested on: NCI-H522 lung
# [7] = tested on: SN12C renal
# [8] = tested on: HCT-15 colon
# [9] = tested on: A498 renal
# [10] = tested on: CCRF-CEM leukemia
SMILES,TGI [1] [µM],TGI [2] [µM],TGI [3] [µM],TGI [4] [µM],TGI [5] [µM],TGI [6] [µM],TGI [7] [µM],TGI [8] [µM],TGI [9] [µM],TGI [10] [µM],GI50 [1] [µM],GI50 [10] [µM],GI50 [2] [µM],GI50 [3] [µM],GI50 [4] [µM],GI50 [6] [µM],GI50 [7] [µM],GI50 [8] [µM],GI50 [9] [µM],GI50 [5] [µM]
Cc1c(C(=O)/C=C/c2ccccc2Cl)[n+](=O)c2ccccc2n1[O-],29.4,35.7,25.3,36.1,28.5,23.3,28.4,21.7,26.9,–,–,–,–,–,–,–,–,–,–,–
O=C(/C=C/c1ccccc1O)c1cccnc1,> 100,> 100,> 100,–,> 100,> 100,> 100,–,> 100,> 100,–,–,–,–,–,–,–,–,–,–
Cc1ccc(NC(=O)CC/C(CC(=O)c2ccc(F)cc2)=N\NC(=O)C(=O)NN)cc1C,> 100,> 100,> 100,–,> 100,> 100,> 100,> 100,> 100,> 100,–,–,–,–,–,–,–,–,–,–
C[C@]12CCC3c4ccc(O)cc4CCC3C1Cc1ccc(O)cc12 (stereo not given in full),20.8,27.6,18.1,18,–,12.8,25.8,19,19.7,17.2,6.08,4.14,14.5,5.22,3.75,3.5,11.8,4.51,6.18,–
O=C(Nc1ccccc1)NS(=O)(=O)c1ccc(N2N=C3c4ccccc4CC3C2c2ccccn2)cc1 (stereo not given),75.7,97.9,> 100,> 100,52.2,58.3,> 100,> 100,–,> 100,30.6,40.9,26.8,35.5,27.1,17.7,30.4,23.1,–,20.8
CC[C@H](C)[C@H](NC(=O)Nc1ccccc1)C(=O)N(C)[C@H](C[C@@H](OC(C)=O)c1nc(C(=O)N[C@@H](Cc2ccccc2)C[C@H](C)C(=O)OC)cs1)C(C)C,6.85,> 100,> 100,> 100,> 100,21.1,> 100,> 100,–,> 100,2.37,2.25,11.9,3.56,2.03,1.5,8.31,3.58,–,5.8
COc1cc2ccnc(-c3c4ccccc4c(N)c4c(OC)c(OC)ccc34)c2cc1OC,4.6,–,11.5,–,17.7,15.9,14.1,–,8.89,14.2,–,–,–,–,–,–,–,–,–,–
COc1cc2ccnc3c2c(c1OC)-c1ccc(=O)ccc1-3,77.3,> 100,> 100,51.9,–,71.3,> 100,77.1,–,41.7,15.9,13.7,51.7,22.4,18.4,23.4,31,22.5,–,–
O=C(NC(=S)NNC(=S)NNc1ccccc1)c1ccccc1,44.1,> 100,> 100,> 100,–,3.42,> 100,> 100,> 100,> 100,3.94,5.33,> 100,24.8,3.55,0.489,4.87,5.21,37.5,–
ICCC(c1ccccc1)(c1ccccc1)c1ccccc1,16.1,27.1,14.1,17.1,31,22.7,27.2,15.5,–,16.3,3.61,3.56,13.4,3.75,3.72,8.35,12.2,3.56,–,13.4
Cc1ccc(S(=O)(=O)SCc2ccccc2CSS(=O)(=O)c2ccc(C)cc2)cc1,36.2,–,34.4,43.1,46.4,22.8,33.6,48.6,> 100,–,–,–,–,–,–,–,–,–,–,–
COc1ccc2c(c1)sc1nc(-c3ccccc3)c(-c3ccc(O)c(OC)c3)n12,> 100,> 100,> 100,–,> 100,> 100,> 100,> 100,> 100,–,6.63,–,33.7,30.9,–,15,80.4,4.03,28.3,95.5
O=C(OCC1OC(OC(=O)c2cc(O)c(O)c(OC(=O)c3cc(O)c(O)c(O)c3)c2)C(OC(=O)c2cc(O)c(O)c(OC(=O)c3cc(O)c(O)c(O)c3)c2)C(OC(=O)c2cc(O)c(O)c(OC(=O)c3cc(O)c(O)c(O)c3)c2)C1OC(=O)c1cc(O)c(O)c(OC(=O)c2cc(O)c(O)c(O)c2)c1)c1cc(O)c(O)c(OC(=O)c2cc(O)c(O)c(O)c2)c1 (stereo not given),35.1,–,> 50,> 50,> 50,29.7,29.8,> 50,–,> 50,11.7,18.2,–,46.9,20.8,8.71,11.4,9.73,–,18.9
CCOC(=O)N1N=NC2C3OC(C[C@@]3(C#N)OC(C)=O)[C@H]21 (stereo not given in full),> 100,> 100,> 100,> 100,> 100,> 100,> 100,> 100,–,> 100,–,–,–,–,–,–,–,–,–,–
Nc1ccc2c(c1)CC1c3ccccc3C(C2)c2ccccc21,> 100,> 100,> 100,> 100,–,> 100,> 100,> 100,> 100,> 100,–,–,–,–,–,–,–,–,–,–
Nc1c(C(=O)c2cccc(C#CCN3CCOCC3)c2)cnn1-c1ccc(F)cc1,> 25,> 25,> 25,> 25,> 25,> 23.6,> 25,> 25,> 25,–,> 25,–,> 25,> 25,> 20.8,> 10.9,> 25,11.2,11.1,> 25
